{"source": "patent US20070093520A1", "about": "“Method of treatment of diarrhea-predominant irritable bowel syndrome in a subject” (priority 2005, published 2007)", "system": "diarrhea-predominant IBS subjects", "assay": "3007 Study: laboratory marked abnormalities", "format": "in vivo, human", "settings": "Study 3007", "description": "Subjects were encouraged to fast at least six hours prior to laboratory samples being drawn. Laboratory safety tests were performed at Day 1 (Visit 5 of the core protocol), Months 1, 6, and 12 (end of study or at the early termination visit). Blood and urine were analyzed for:\n• Prothrombin time (PT) (only before colonoscopy, as per clinical practice) • Hemoglobin • Hematocrit • Red blood cell count (RBC) • White blood cell count (WBC) • Differential blood count • Platelet count Blood Chemistry: • Glucose • Creatinine • Blood urea nitrogen (BUN) • Creatine kinase (CK) • Alkaline phosphatase (AP) • Total bilirubin • Alanine aminotransferase (ALT/SGPT) • Aspartate aminotransferase (AST/SGOT) • Gamma-glutamyltransferase (GGT) • Triglycerides • Cholesterol • Total protein • Uric acid • Sodium • Potassium • Calcium • Quantitative beta human chorionic gonadotrophin (β-HCG) (at every visit) • Thyroid stimulating hormone (visit 1 only) Urine: • Urobilinogen • Blood • Bilirubin • Ketones • Glucose • Protein • Nitrite • Leukocytes • pH • Dipstick pregnancy test (Day 1 only, if necessary) Stool: • Parasite, ova and stool culture (visit 1 only, if necessary) • Occult blood (analysis at each visit)\nLaboratory data are presented in conventional units. Only one central laboratory was used for each laboratory parameter, thus no laboratory normalization was carried out.\nFor Study 3007, “baseline” was defined as Visit 1 of core Study 3006 for subjects randomized to the cilansetron treatment group in Study 3006 and as the last post-Baseline visit of Study 3006 (normally Visit 5) for subjects randomized to the placebo group in Study 3006.\nSummary statistics are presented for all hematology and chemistry parameters at each analysis timepoint and at Endpoint, as well as for change from Baseline results at each post-Baseline analysis timepoint and at Endpoint. For laboratory assessments that were gender specific, summaries were presented separately for males and females. A listing of laboratory assessments for hematology, chemistry, and urinalysis parameters is presented. The following categories were used for the urinalysis parameter summaries: • pH: ≦5.0, >5.0 to ≦6.0, >6.0 to ≦7.0, and >7.0 • glucose, total protein, ketones, total bilirubin, nitrite, RBC (erythrocytes), and urobilinogen: negative and other (consisting of ‘trace’, ‘positive’, ‘+’, ‘++’, ‘+++’, or ‘++++’) • WBC (leukocytes): negative, positive\nThe overall incidence of post-Baseline marked abnormalities for hematology and chemistry parameters is also presented. Where applicable, the incidence of post-Baseline marked abnormalities is presented separately by whether the value was abnormally high or low. Any post-Baseline markedly abnormal laboratory measurement collected after the first dose of cilansetron and within 30 days of the last dose of cilansetron was included. However, assessments which were done more than 30 days after last subject visit and after database lock were not included in the analysis. Subjects were counted at most once for the post-Baseline marked abnormality for each laboratory parameter.", "data": [{"compound": "Cc1nccn1C[C@H]1CCc2c(c3cccc4c3n2CCC4)C1=O", "note": "[cilansetron, (R)-(−)-4,5,6,8,9,10-hexahydro-10-[(2-methyl-1H-imidazol-1-yl)methyl]-11H-pyrido-[3,2,1-jk]-carbazol-11-one]", "values": [{"measurement": "post-Baseline markedly high CK", "value": 3, "unit": "%"}, {"measurement": "post-Baseline markedly high eosinophils", "value": 1, "unit": "%"}, {"measurement": "post-Baseline markedly high triglycerides", "value": 3, "unit": "%"}, {"measurement": "post-Baseline markedly high uric acid", "value": 1, "unit": "%"}, {"measurement": "post-Baseline markedly high GGT", "setting": "females", "value": 5, "unit": "%"}, {"measurement": "post-Baseline markedly high GGT", "setting": "males", "value": 7, "unit": "%"}, {"measurement": "post-Baseline markedly high GGT", "setting": "overall", "value": 6, "unit": "%"}]}]}
